Source: the METLIN SMRT retention time set (Domingo-Almenara et al. 2019)

Experiment: gradient 5% acetonitrile 3 min, to 50% in 2 min, to 85% in 15 min, held 3 min, 100 µL/min
Conditions: column: Zorbax Extend-C18 2.1 x 50 mm; eluents: water / acetonitrile, 0.1% formic acid
Outline: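 Retention times come from adduct peaks that were picked computationally and then checked by hand. The standards, pure and pooled in mixtures of ~100 molecules, were run on a Zorbax Extend-C18 column (2.1 × 50 mm, 1.8 μm) at 100 μL/min with water and acetonitrile, each with 0.1% formic acid. Detection was by quadrupole time-of-flight mass spectrometry in positive and negative ionization mode, with a dead volume of 40 μL and a dwell volume of 900 μL.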

| Structure (SMILES) | RP-LC retention time [s] |
| --- | --- |
| Cc1cccc(CNC(=O)C2(C)Cn3cnc(C(=O)NCc4ccc(F)cc4)c3C(=O)N2C2CC2)c1 (stereo not drawn) | 798 |
| Cn1nc2c(c1NC(=O)Cc1ccc3c(c1)OCO3)CCC2 | 644 |
| CCCN(CC1CCOC1)C(=O)Nc1ccccc1OCC (stereo not drawn) | 903 |
| COC(=O)c1c(C)[nH]c(C(=O)N2CCC(CC(=O)NCc3ccccc3F)CC2)c1C | 743 |
| Cc1ccc(Cl)cc1NC(=O)C1CCN(S(=O)(=O)c2cc3c(cc2C)NC(=O)CO3)CC1 | 863 |
| CCOC(=O)c1sc2ccccc2c1S(=O)(=O)Nc1ccc2c(c1)OCO2 | 968 |
| Cc1[nH]c(C(=O)Nc2ccc(F)cc2)c(C)c1S(=O)(=O)N1CCCC1 | 845 |
| CCc1ccc(-n2ncc3c(=O)n(Cc4nc(-c5ccc(F)cc5)no4)cnc32)cc1 | 1170 |
| CC1CCN(c2cc(-n3cnc(C(=O)N4CCN(c5ccccc5F)CC4)c3)ncn2)CC1 | 1090 |
| O=C(O)[C@H]1O[C@H](Oc2cc3oc(-c4ccccc4)cc(=O)c3c(O)c2O)[C@H](O)[C@@H](O)[C@@H]1O | 658 |
| CC(C)(C)CC(=O)NC1CCN(c2ccc(F)cc2)C1=O (stereo not drawn) | 755 |
| Cc1nc(-c2cn(C(C)C)c3ncccc23)sc1C(=O)N1CCN(CC(C)C)CC1 | 661 |
| O=C(NCc1ccc(C(F)(F)F)cc1)C1=C2CCCN2c2ccccc2S1(=O)=O | 922 |
| C[C@@H]1C/C=C/C=C/C=C/C=C/[C@H](O[C@@H]2O[C@H](C)[C@@H](O)[C@H](N)[C@@H]2O)C[C@@H]2O[C@](O)(C[C@@H](O)C[C@H]3O[C@@H]3/C=C/C(=O)O1)C[C@H](O)[C@H]2C(=O)O | 686 |
| CCc1cc(C(=O)Nc2cc(C)ccc2OC)nc2ccnn12 | 1190 |
| CCSc1nc2ccc(NS(=O)(=O)c3ccccc3Cl)cc2s1 | 1030 |
| O=C(NCCNC(=O)[C@@H]1CCCN1C(=O)c1ccc(F)cc1)c1ccc(F)cc1 | 656 |
| COc1ccc(C2C(C(=O)NCC3CCCO3)CCC(=O)N2c2cc(OC)c(OC)c(OC)c2)cc1 (stereo not drawn) | 631 |
| COc1ccc(-c2nc(-c3cn(Cc4cccc(F)c4)nn3)no2)c(OC)c1 | 934 |
| CCCOC1CCN(C(=O)NC)CC1 | 630 |
| COc1cccc(C(=O)NCc2nnnn2C2CCCCC2)c1OC | 784 |
| Cn1nc(C(=O)N2CCCC(c3nnc(C(F)(F)F)o3)C2)ccc1=O (stereo not drawn) | 638 |

| Structure (SMILES) | RP-LC retention time [s] |
| --- | --- |
| O=C(NCc1ccc(F)cc1F)c1ccc2ncnc(N3CCCCC3)c2c1 | 680 |
| COc1ccc(-c2nnc(-c3ccc(C)c(S(=O)(=O)NC(C)(C)C)c3)o2)cc1OC | 941 |
| Cc1ccc(CNC(=O)Cn2c(C)cc(-c3nnc(-c4ccc(F)cc4)o3)c2C)o1 | 919 |
| CCn1ncc(Br)c1C(=O)Nc1ccccc1Cl | 1090 |
| Cc1cc(N2CCN(S(=O)(=O)c3cc(F)ccc3C)CC2)nc(NC2CCCCC2)n1 | 864 |
| Cc1ccc(NC(=O)CSc2cc(N3CCCCC3)ncn2)cc1Cl | 1050 |
| Cc1noc(C2CN(S(=O)(=O)c3ccccc3)CC23CCOCC3)n1 (stereo not drawn) | 767 |
| O=S(=O)(Cc1ccccc1)N1CCC2(CC1)CC(OCc1ccccc1)CCO2 (stereo not drawn) | 1080 |
| O=C(Nc1nc2ccccc2n1CCN1CCOCC1)c1ccc(Cl)cc1 | 633 |
| CCOc1ccccc1C(=O)N1CCC2(CC1)NC(=O)c1cc(C)ccc1N2CC | 861 |
| COc1ccc(N2CCN(c3ncccc3-c3nc(-c4ccc(Cl)cc4)no3)CC2)cc1 | 1230 |
| CCOC(=O)COC(=O)c1cn(-c2ccc(OC)cc2)c(=O)c2ccccc12 | 1010 |
| Cc1c(-c2noc(C(=O)NCCN3CCCCCC3)n2)oc2ccccc12 | 710 |
| CCCCCN1C(=O)C2(NCCc3c2[nH]c2ccc(C)cc32)c2ccccc21 (stereo not drawn) | 792 |
| Cc1nn(-c2ccccc2)c(C)c1C=NN1CCN(Cc2ccccc2)CC1 | 739 |
| Cc1ccc(NC(=O)CSc2nccc(N3CCCCCC3)n2)cc1F | 738 |
| COCCCNC(=O)C1CCN(c2nnc(-c3ccccc3)o2)CC1 | 659 |
| CCC(C)NC(=O)c1c(O)c2sccc2n(Cc2ccccc2)c1=O (stereo not drawn) | 1310 |
| O=C(NCCCc1ccccc1)C1CCN(C(=O)N2CCOc3ccc(Cl)cc32)CC1 | 948 |
| COc1cc(=O)n2c(c1C(=O)Nc1ccc(N(C)C)cc1)CCCC2 | 567 |
| O=C(NC1CCCCCCC1)c1nnc(-c2ccc(S(=O)(=O)N3CCCCC3)cc2)o1 | 754 |
| CCc1nn2c(CNC(=O)c3ccc(Br)cc3)c(-c3ccccc3)nc2s1 | 1010 |

| Structure (SMILES) | RP-LC retention time [s] |
| --- | --- |
| O=C(NC1CC1)C1CCN(c2cnn(Cc3ccccc3)c(=O)c2)C1 (stereo not drawn) | 664 |
| Cc1cc(S(=O)(=O)N2C[C@@H](F)C[C@H]2C(=O)N2CCc3ccccc3C2)ccc1Cl | 1020 |
| O=C(CCSc1ccccc1)N1CCN(c2ccc3nnc(-c4ccco4)n3n2)CC1 | 703 |
| O=C(COc1ccc(Cl)cc1)N1CCc2nc[nH]c2C1 | 606 |
| CN1CCN(CCC(=O)N2CCC(c3c[nH]c4ccccc34)(c3c[nH]c4ccccc34)CC2)CC1 | 625 |
| CCOCCn1c(=O)c2c(nc3n2CCN3c2cc(Cl)ccc2OC)n(C)c1=O | 774 |
| CCCn1c(=O)sc2cc(S(=O)(=O)N3CCC(C(=O)NC(C)(C)CC)CC3)ccc21 | 979 |
| CCn1c(=O)c2ccnn2c2ccc(C(=O)O)cc21 | 662 |
| CC(C(=O)NCC1CCCO1)N1C(=O)C2CCCCN2C(=O)c2ccccc21 (stereo not drawn) | 664 |
| CN(c1nccn2c(=O)n(CC(=O)Nc3cc(F)ccc3F)nc12)C1CCCCC1 | 786 |
| Cc1cc(=O)n(CC(=O)Nc2ccc3c(c2)OCO3)c(-c2ccc(Cl)cc2)n1 | 1040 |
| O=C(O)Cc1sc(Nc2cccc3ccccc23)nc1-c1ccc(F)cc1 | 918 |
| CCOC(=O)COc1cc(-c2ccc(F)cc2)nc2ccc(NC(=O)COC)cc12 | 730 |
| O=C1[C@H]2CN(Cc3cccc(F)c3)C[C@H]2C(=O)N1Cc1ccc2c(c1)OCO2 | 800 |
| CC(=O)N1CCN(c2cc(-c3nc(-c4cccc(F)c4)no3)c3ccccc3n2)CC1 | 1090 |
| Cc1ccc(-c2nc3ccccc3[nH]2)cc1NC(=O)C1CCCO1 (stereo not drawn) | 615 |
| O=S(=O)(c1cccc(C(F)(F)F)c1)N1CCc2nc(-c3ccc(F)cc3)ncc2C1 | 1170 |
| COc1cccc2cc(C(=O)Nc3ccc4c(c3)C(=O)Nc3ccccc3O4)oc12 | 950 |
| O=C(Cc1ccsc1)Nc1ccc(N2CCN(Cc3ccccc3)C2=O)nc1 | 643 |
| O=C1NC2(CCN(C(=O)c3ccccc3)CC2)N=C1c1cccc(Cl)c1 | 869 |
| Cn1nc2n(c1=O)CCN(C(=O)c1ccc3c(c1)OCO3)CC2 | 610 |
| CCN1C(=O)c2cccnc2Sc2cc(NC(=O)c3cccs3)ccc21 | 796 |

| Structure (SMILES) | RP-LC retention time [s] |
| --- | --- |
| O=C(Cn1nc(N2CCCC2)c2ccccc2c1=O)Nc1ccc(F)cc1Cl | 1010 |
| COc1cc(NC(=O)CN2C(=O)COc3ccc(C(=O)N(C)C)cc32)cc(OC)c1 | 689 |
| COc1ccccc1C(=O)Nc1nc(-c2ccccc2)cs1 | 1110 |
| CC(C)NC(=O)c1cccnc1N1CCSCC1 | 662 |
| O=C(NCc1csc(-c2cccs2)n1)C1CCN(C(=O)c2ccccc2F)CC1 | 743 |
| CCC(C(=O)N1CCc2ccccc21)n1cnc2nc3c(cc2c1=O)CCCC3 (stereo not drawn) | 899 |
| COc1ccc(NC(=O)Cn2c(=O)n(-c3ccccc3)c(=O)c3c2cc(C)n3C)cc1OC | 791 |
| CN1C(=O)C2CCCCN2c2ccc(C(=O)NCCCN3CCCCC3)cc21 (stereo not drawn) | 600 |
| O=C1CCCN1CCCN(CC(=O)N1CCNCC1)C(=O)c1cccc(Cl)c1 | 586 |
| CCc1noc(NC(C)=O)c1-c1ccc(C)c(S(=O)(=O)Nc2cccc(C)c2)c1 | 826 |
| Cc1nc2cccnc2n1CCN1CCN(C(=O)Nc2ccc(Br)cc2)CC1 | 619 |
| Cc1ccc(CN2CCC(c3nc(-c4cnccn4)n[nH]3)CC2)s1 | 570 |
| CCn1ccc2c(cc(C(=O)Nc3ccccc3Br)n2C)c1=O | 758 |
| COc1cccc(NC(=O)C2CC(=O)N(c3n[nH]c4cccc(F)c34)C2)c1 (stereo not drawn) | 737 |
| O=C(C1CCN(c2cnc3nccnc3c2)CC1)N1CCCCC1 | 648 |
| Cn1ncc(N2CCCC(C(=O)NC3CCCCCCC3)C2)cc1=O (stereo not drawn) | 751 |
| CSc1ccccc1-c1nnc(NC(=O)C(c2ccccc2)c2ccccc2)o1 | 895 |
| CCOc1cc(=O)c(C(=O)N2CCC(C(N)=O)CC2)nn1-c1ccc(OC)cc1 | 609 |
| CCOC(=O)c1noc2nc(C)nc(Nc3cc(C)cc(C)c3)c12 | 1060 |
| Nc1cc(C2CCN(C(=O)NCCc3ccccc3)CC2)no1 | 668 |
| O=C1C2N=NN(c3ccccc3)C2C(=O)N1c1ccccc1 (stereo not drawn) | 907 |
| Cn1c(=O)c(C(=O)NC2CCCC2)nc2cccnc21 | 707 |
